For assay [1], the system named is L. lactis subspecies lactis. The assay is classed as cell-based, Lactococcus lactis subspecies lactis. The conditions noted are these: 30 C. The text has this: (§1) DIFCO MRS broth was obtained from BD-Diagnostic Systems (Sparks, Md.).
(§2) Four strains of lactic acid-producing bacteria were isolated from processed meats. Two of the cultures were identified as Leuconostoc mesenteroides and Weissella viridescens, Lactococcus lactis subspecies lactis and Streptococcus oralis.
(§3) Bromcresol purple (BCP) pH indicators was obtained from Eastman Kodak (Rochester, N.Y.). Chlorophenol red (CPR) (CAS NO. 4430-20-0) was obtained from Sigma-Aldrich (St. Louis, Mo.). The pH indicators were individually added to MRS broth to obtainfinal concentrations of BCP or CPR of 0.5 mM. After dissolving the pH indicator, the solutions were filter-sterilized.
(§4) Bacterial cultures were prepared by inoculating pure cultures into tryptic soy broth or MRS broth. The inoculated broth was incubated overnight at 25° C. The overnight cultures were diluted in the MRS broth (containing bromcresol purple) to obtain a suspension of approximately 10-100 colony-forming units (CFU) per milliliter. […] Inoculated plates were incubated at temperatures at 25°, 30° and 32° C., respectively. The plates were visually inspected for signs of bacterial growth.
(§5) A concentrated solution of sterile chlorophenol red was added to the MRS diluent as described in Example 2. A concentrated solution of sterile dipotassium phosphate (pH 7.0+/−0.2) was added to the MRS diluent to provide an additional 28 mM phosphate buffer in the diluent. Lactic acid bacterial cultures were prepared and diluted into the MRS/chlorophenol red solution as described in Example 1 with the exception that S. oralis was not tested in this experiment. […] The plates were incubated at 30° C. and the plates were visually inspected for signs of bacterial growth.
(§6) A concentrated solution of sterile chlorophenol red was added to the MRS diluent as described in Example 2. A concentrated solution of sterile dipotassium phosphate (pH 7.0+/−0.2) was added to the MRS diluent to provide and additional 28 mM phosphate buffer in the diluent. Lactic acid bacterial cultures were prepared and diluted into the MRS/chlorophenol red solution as described in Example 1 with the exception that S. oralis was not tested in this experiment. […] The plates were incubated at 30° C. and the plates were visually inspected for signs of bacterial growth.

A further assay has as its system S. oralis. In kind it is cell-based, Streptococcus oralis. The conditions noted are these: Example 1; indicator 0.02 g/l or 0.04 g/l; buffer addition None; 25 C, 30 C; 40-72 hr.
Source text: as §1, §2, §3, §4
A concentrated solution of sterile chlorophenol red was added to the MRS diluent as described in Example 2. […]

A further assay deals with Leuconostoc. In kind it is cell-based, Leuconostoc mesenteroides. The settings on record: 30 C.
Source text: as §1, §2, §3, §4, §5, §6

The test system of a further assay is Weissella. In kind it is cell-based, Weissella viridescens. The conditions noted are these: 30 C.
Source text: as §1, §2, §3, §4, §5, §6

For assay [2], the system named is L. lactis subspecies lactis. Briefly: Colony appearance on thin film culture devices containing pH indicators (MRS/Letheen diluent). The assay is classed as cell-based, Lactococcus lactis subspecies lactis. The conditions noted are these: indicator 0.5 mM. The text has this: (§7) The aliquot were separately filter-sterilized.
In the next assay the test system is L. mesenteroides. Described as above. The settings on record: indicator 0.5 mM. The assay is classed as cell-based, Leuconostoc mesenteroides.
Source text: as §7

In assay [3] the test system is Lactobacillus brevis. Briefly: Detection of lactic acid bacteria with Nystatin on Plate I. In kind it is cell-based. The conditions noted are these: 500 U/mL Nystatin, 28 degrees Celsius, 48-144 hr, 99.9% CO2. The protocol: (§8) Overnight cultures of Lactobacillus brevis, Pediococcus damnosus and 5 strains of Saccharomyces cerevisiae were grown in MRS broth (bacteria cultures) or yeast peptone dextrose (YPD) broth (yeast cultures). These cultures were serially diluted, yielding suspensions that contained approximately 100 cfu/mL of the organisms. A second series of suspensions were prepared and 500 U/mL Nystatin (CAS No. 1400-61-9 from Sigma) were added to the suspensions. A stock solution was prepared by adding Nystatin solids to 100% ethanol to make a solution of 25,000 U/mL which was then added to the bacteria/yeast suspensions to obtain the desired Nystatin concentration. One milliliter of each of the different solutions was then inoculated onto Plate I. The inoculated plates were incubated at 28 degrees Celsius for 48-144 hr in a 99.9% CO2 incubator.

Assay [4] has as its system Saccharomyces cerevisiae. The assay is described as above. The assay is classed as cell-based. The settings on record: 500 U/mL Nystatin, 28 degrees Celsius, 48-144 hr, 99.9% CO2. The protocol: as §8
The next assay deals with Pediococcus damnosus. The assay is described as above. The assay is classed as cell-based. The conditions noted are these: 500 U/mL Nystatin, 28 degrees Celsius, 48-144 hr, 99.9% CO2. As to the method: as §8
Assay [5] deals with Lactobacillus brevis. Kind of assay: Colony growth with cycloheximide on Plate I. In kind it is cell-based. The settings on record: with cycloheximide 100 ppm, 28° C., 48 hr, 99.9% carbon dioxide. The protocol:
(§9) Overnight cultures of Lactobacillus brevis in MRS broth and Saccharomyces cerevisiae in yeast peptone dextrose (YPD) broth were prepared as described in Example 7. The cultures were serially diluted to obtain suspensions, each containing approximately 100 cfu/ml of the individual species (either L. brevis or S. cerevisiae). A third suspension was prepared containing 100 cfu/mL total of both species. A second set of 3 suspensions was prepared in the same manner (only L. brevis, only S. cerevisiae, and both organisms) except that each final solution also contained 100 ppm (10 mg/mL) cycloheximide ((CAS No. 66-81-9), sold under the tradename Actidione and obtained from Sigma (Fluka). The cycloheximide was added by using a stock solution of cycloheximide prepared by dissolving 100 ppm of cycloheximide to Butterfield's Buffer and sterile filtering the solution through a 0.2 μm filter. The stock solution was added to the diluent buffer.
(§10) One milliliter of each of the bacterial suspensions was used to inoculate Plate I. The plates were incubated at 28° C. for 48 hr in an incubator having an environment of 99.9% carbon dioxide. Growth indicates the presence of colonies.

Assay [6] deals with Lactobacillus brevis and Saccharomyces. Briefly: Colony growth with cycloheximide on Plate I. The assay is classed as cell-based, Lactobacillus brevis and Saccharomyces cerevisiae. As to the method: as §9, with “A second set of 3 suspensions was prepared in the same manner (only L. brevis, only S. cerevisiae, and both organisms) except that each final solution also contained 100 ppm (10 mg/mL) cycloheximide ((CAS No. 66-81-9), sold under the tradename Actidione and obtained from Sigma (Fluka).” left out
as §10

For assay [7], the system named is Saccharomyces cerevisiae. Briefly: Colony growth with cycloheximide on Plate I. In kind it is cell-based. As to the method:
as §9, with “A second set of 3 suspensions was prepared in the same manner (only L. brevis, only S. cerevisiae, and both organisms) except that each final solution also contained 100 ppm (10 mg/mL) cycloheximide ((CAS No. 66-81-9), sold under the tradename Actidione and obtained from Sigma (Fluka).” left out
as §10

Where [8] appears, read: Example 1, indicator 0.02 g/l or 0.04 g/l, buffer addition None, 25 C, 18-24 hr.
Where [9] appears, read: Example 1, indicator 0.02 g/l or 0.04 g/l, buffer addition None, 25 C, 40-72 hr.
The mark [10] stands for this setting: Example 2, indicator 0.21 g/l, buffer addition None, 18-24 hr.
Setting [11] is: Example 2, indicator 0.21 g/l, buffer addition None, 40-72 hr.
Setting [12] is: Example 3, indicator 0.21 g/l, buffer addition 28 mM, 18-24 hr.
[13] abbreviates: Example 3, indicator 0.21 g/l, buffer addition 28 mM, 40-72 hr.
Setting [14] is: with cycloheximide 100 ppm, 28° C., 48 hr, 99.9% carbon dioxide.

Here are results for six compounds from patent US9873904B2, “Detection of acid-producing bacteria” (3M INNOVATIVE PROPERTIES COMPANY, priority 2009, dated 2018).

Structures can show the parent of a compound that is named as a salt. Where two headings read alike, the source gives them in different places.

`Cc1cc(C2(c3cc(C)c(O)c(Br)c3)OS(=O)(=O)c3ccccc32)cc(Br)c1O` [Bromcresol Purple, Bromcresol purple]: the Observations entry in assay [1] (setting [8]) was “L. lactis subspecies lactis: Colonies with acid zones. No gas bubbles”; in assay [1] (setting [9]) it was “L. lactis subspecies lactis: Colonies with acid zones. No gas bubbles”; in the assay with S. oralis, “S. oralis: Acid zones. No visible colonies or gas bubbles”; in the assay on Leuconostoc (setting [9]), “Leuconostoc: Acid zones. No visible colonies or gas bubbles”; in the assay on Weissella (setting [8]) it was “Weissella: Acid zones without visible colonies. No gas bubbles”; in the assay with Weissella (setting [9]), “Weissella: Acid zones and gas bubbles. Pale colonies”.
Take `Cc1c(C2(c3cc(Br)c(O)c(Br)c3C)OS(=O)(=O)c3ccccc32)cc(Br)c(O)c1Br` [Bromocresol Green, Bromocresol Green sodium salt]: the “24-hour Results” value in assay [2] (32° C.) was “Pale yellow zones”; with L. mesenteroides (25° C.), “Colonies, yellow zones”; in the assay on L. mesenteroides (32° C.), “Colonies, yellow zones”.
Consider `O=C1C(Br)=CC(=C(c2cc(Br)c(O)c(Br)c2)c2ccccc2S(=O)(=O)[O-])C=C1Br.[Na+]` [Bromphenol Blue, Bromphenol Blue sodium salt], for which the “48-hour Results” value in assay [2] (25° C.) is on record as “Pale colonies”; in assay [2] (32° C.), “pale colonies”; in the assay with L. mesenteroides (32° C.), “Pale colonies, gas bubbles”. Moreover, the “72-hour Results” value in assay [2] (25° C.) is “Colonies, gas”; in assay [2] (32° C.) it was “Colonies, gas”; in the assay on L. mesenteroides (32° C.) it was “Pale colonies, gas bubbles”.
Regarding `O=S1(=O)OC(c2ccc(O)c(Cl)c2)(c2ccc(O)c(Cl)c2)c2ccccc21` [Chlorophenol Red, Chlorophenol red], the Observations entry in [1] (setting [10]) is “Acid zones were visible for all three microorganisms tested”; in assay [1] (setting [11]), “L. lactis subspecies lactis: Colonies with acid zones and gas bubbles”; in assay [1] (setting [12]), “Acid zones visible with all three strains”; in [1] (setting [13]) it was “L. lactis subspecies lactis: Colonies with acid zones and gas bubbles”; in the assay with Leuconostoc (setting [10]) it was “Acid zones were visible for all three microorganisms tested”; in the assay on Leuconostoc (setting [11]), “Leuconostoc: Acid zones and gas bubbles. No visible colonies”. For the same compound, the Observations entry was “Acid zones visible with all three strains” in the assay with Leuconostoc (setting [12]); “Leuconostoc: Acid zones. No visible colonies” in the assay with Leuconostoc (setting [13]); “Acid zones were visible for all three microorganisms tested” in the assay with Weissella (setting [10]); “Weissella: Colonies with acid zones and gas bubbles” in the assay on Weissella (setting [11]); “Acid zones visible with all three strains” in the assay on Weissella (setting [12]); “Weissella: Colonies with acid zones and gas bubbles” in the assay on Weissella (setting [13]). The “24-hour Results” value in assay [2] (32° C.) was “Colonies; yellow zones”; in the assay on L. mesenteroides (32° C.), “Yellow zones”. Besides, the “48-hour Results” value is on record as “Colonies; yellow zones” in [2] (32° C.) and “Yellow zones, gas” with L. mesenteroides (32° C.).
Consider `C[C@@H]1[C@H](O)[C@@H](C)/C=C/C=C/CC/C=C/C=C/C=C/C=C/C(O[C@H]2O[C@H](C)[C@@H](O)[C@H](N)[C@@H]2O)CC2O[C@](O)(CC(O)C(O)CCC(O)CC(O)CC(O)CC(=O)O[C@H]1C)CC(O)C2C(=O)O` (stereo partly drawn) [Nystatin], for which the figures for the colony growth entry in the assay on Lactobacillus brevis [3], in the assay on Saccharomyces cerevisiae [4] and with Pediococcus damnosus were “grew whether Nystatin was present or not”, “grew only on the plates that did not contain Nystatin” and “grew whether Nystatin was present or not”, respectively.
In the case of `C[C@@H]1C[C@@H]([C@H](O)CC2CC(=O)NC(=O)C2)C(=O)[C@@H](C)C1` [cycloheximide], the “Observation (colony growth)” value in the assay with Lactobacillus brevis [5] is “Growth - 1 distinct colony morphology”; in assay [6] (setting [14]) it was “Growth - 1 distinct colony morphology”; in the assay on Saccharomyces cerevisiae [7] (setting [14]), “No growth”. In assay [6] (cycloheximide 5, 10, 40 and 100 ppm), the colony morphology entry is given as “one distinct colony morphology”. For the same compound, the growth entry in the assay with Saccharomyces cerevisiae [7] (cycloheximide 5, 10, 40 and 100 ppm, only S. cerevisiae) is “no growth”.
